In ChEMBL document CHEMBL5360672, “Identification of Novel Dual-Target Estrogen Receptor α Degraders with Tubulin Inhibitory Activity for the Treatment of Endocrine-Resistant Breast Cancer” (J Med Chem, 2023):
Activity calls are given as the source filed them. No cut-off for these calls is given here.

Assays:
[1] = target: T1, Estrogen receptor (Homo sapiens) (UniProt P03372); test: Induction of ERalpha degradation in human MCF7 cells at 5 uM incubated for 24 hrs by Western blot analysis relative to SeCN-OBHSA derivatives; format: cell-based
T1 sequence (whole entry): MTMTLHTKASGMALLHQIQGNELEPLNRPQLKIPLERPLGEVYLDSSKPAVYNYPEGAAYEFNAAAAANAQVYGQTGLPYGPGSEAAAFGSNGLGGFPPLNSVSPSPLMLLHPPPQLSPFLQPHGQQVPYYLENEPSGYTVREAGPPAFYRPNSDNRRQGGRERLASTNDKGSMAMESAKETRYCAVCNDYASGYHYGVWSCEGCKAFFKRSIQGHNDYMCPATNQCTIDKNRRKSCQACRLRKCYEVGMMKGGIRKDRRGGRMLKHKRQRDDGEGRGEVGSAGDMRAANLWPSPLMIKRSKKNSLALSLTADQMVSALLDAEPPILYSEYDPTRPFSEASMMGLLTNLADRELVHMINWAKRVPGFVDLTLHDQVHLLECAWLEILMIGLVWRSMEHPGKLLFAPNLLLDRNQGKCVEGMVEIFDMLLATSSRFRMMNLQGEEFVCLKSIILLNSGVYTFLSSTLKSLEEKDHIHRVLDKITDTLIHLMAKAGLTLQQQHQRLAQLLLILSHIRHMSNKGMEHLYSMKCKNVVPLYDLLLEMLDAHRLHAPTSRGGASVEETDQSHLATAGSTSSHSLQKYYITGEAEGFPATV

[2] = Antiproliferative activity against human Tamoxifen-resistant LCC2 cells assessed as inhibition of cell proliferation incubated for 72 hrs by CCK8 assay; format: functional, cell-based
[3] = target: Estrogen receptor beta (Homo sapiens) (UniProt Q92731); test: Binding affinity to human ERbeta assessed as relative binding affinity incubated under vibration for 1 min followed by 2 hrs incubation under dark condition by fluorescence polarization assay relative to estradiol; details: time 121.0 min
MCF7 = test: Antiproliferative activity against ERalpha positive human MCF7 cells assessed as inhibition of cell proliferation incubated for 72 hrs by CCK8 assay; format: functional, cell-based; details: MCF7, 72 h
[4] = Cytotoxicity against human MCF-10A cells assessed as inhibition of cell proliferation incubated for 72 hrs by CCK8 assay; format: toxicity, cell-based
T47D [5] = test: Antiproliferative activity against ERalpha positive human T47D cells assessed as inhibition of cell proliferation incubated for 72 hrs by CCK8 assay; format: functional, cell-based
T47D [6] = test: Antiproliferative activity against human T47D cells harboring ERalpha D538G mutant assessed as inhibition of cell proliferation incubated for 72 hrs by CCK8 assay; format: functional, cell-based
[7] = target: T1, Estrogen receptor (Homo sapiens); test: Binding affinity to human ERalpha assessed as relative binding affinity incubated under vibration for 1 min followed by 2 hrs incubation under dark condition by fluorescence polarization assay relative to estradiol; details: time 121.0 min
Homo sapiens = species: Homo sapiens; test: Selectivity ratio of relative binding affinity for human ERalpha to relative binding affinity to human ERbeta
T47D [8] = test: Antiproliferative activity against human T47D cells harboring ERalpha Y537S mutant assessed as inhibition of cell proliferation incubated for 72 hrs by CCK8 assay; format: functional, cell-based
[9] = Selectivity index, ratio of IC50 for cytotoxicity against human MCF-10A cells to IC50 for antiproliferative activity against human MCF7 cells; format: toxicity, cell-based; details: MCF-10A cells and MCF7 cells, read-out: Ratio IC50

Chain of Estrogen receptor beta (Homo sapiens) (Q92731 whole entry): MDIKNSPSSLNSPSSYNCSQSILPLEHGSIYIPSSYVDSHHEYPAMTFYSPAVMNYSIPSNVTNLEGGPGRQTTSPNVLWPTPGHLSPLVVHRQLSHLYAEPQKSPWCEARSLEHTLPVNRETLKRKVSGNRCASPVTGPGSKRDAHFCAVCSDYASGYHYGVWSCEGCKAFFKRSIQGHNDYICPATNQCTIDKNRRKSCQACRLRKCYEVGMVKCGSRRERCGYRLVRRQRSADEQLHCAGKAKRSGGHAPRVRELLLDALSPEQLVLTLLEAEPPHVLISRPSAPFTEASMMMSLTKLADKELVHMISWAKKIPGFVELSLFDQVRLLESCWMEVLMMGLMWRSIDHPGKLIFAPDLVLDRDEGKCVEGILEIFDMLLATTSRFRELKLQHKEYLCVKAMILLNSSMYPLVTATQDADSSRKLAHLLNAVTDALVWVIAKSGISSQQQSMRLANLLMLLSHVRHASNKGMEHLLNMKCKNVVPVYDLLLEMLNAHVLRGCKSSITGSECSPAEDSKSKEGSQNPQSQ

Activity [1]	RBA [3] [%]	IC50 (MCF7) [µM]	IC50 (T47D [5]) [µM]	IC50 (T47D [6]) [µM]	RBA [7] [%]	Selectivity ratio (Homo sapiens)	IC50 (T47D [8]) [µM]	SMILES	IC50 [2] [µM]	IC50 at 72 h [4] [µM]	selectivity ratio [9]
Active	0.03	1.89	27.7	17.4	0.39	13	18.9	N#C[Se]CCCCCC(=O)Nc1ccc(C2=C(c3ccc(O)cc3)C3CC(S(=O)(=O)N(CC(F)(F)F)c4ccccc4)C2O3)cc1 (configuration not stated)	20.2	57.6	30.5
Active	0.38	2.95	19.9	17.2	0.46	1.21	11.7	COc1ccc(N(CC(F)(F)F)S(=O)(=O)C2CC3OC2C(c2ccc(NC(=O)CCC[Se]C#N)cc2)=C3c2ccc(O)cc2)cc1 (configuration not stated)	10.1	> 100	> 33.9
Active	0.2	2.81	14.2	19.8	0.51	2.55	9.25	CCN(c1cccc(OC)c1)S(=O)(=O)C1CC2OC1C(c1ccc(NC(=O)CCCCC[Se]C#N)cc1)=C2c1ccc(O)cc1 (configuration not stated)	13.3	91.5	32.5
Active	0.01	0.25	13.6	5.11	7.52	752	4.4	N#C[Se]CCCCCC(=O)Nc1ccc(C2=C(c3ccc(O)cc3)C3CC(S(=O)(=O)N(CC(F)(F)F)c4ccc(Cl)cc4)C2O3)cc1 (configuration not stated)	6.69	32.4	130
	0.78	1.22	3.21		4.72	6.05		N#C[Se]CCCCCC(=O)Nc1ccc(C2=C(c3ccc(O)cc3)C3CC(S(=O)(=O)Oc4ccccc4)C2O3)cc1 (configuration not stated)		> 60	> 49.2
	1.15	0.32	3.58		30.9	26.9		N#C[Se]CCCCCC(=O)Nc1ccc(C2=C(c3ccc(O)cc3)C3CC(S(=O)(=O)Oc4ccccc4O)C2O3)cc1 (configuration not stated)		7.49	23.4
	0.53	0.78	2.05		3.31	6.25		N#C[Se]CCCCCC(=O)Nc1ccc(C2=C(c3ccc(O)cc3)C3CC(S(=O)(=O)Oc4cccc(F)c4)C2O3)cc1 (configuration not stated)		17.5	22.4

The remaining lines, values behind:

SMILES	Activity [1]	RBA [3] [%]	IC50 (MCF7) [µM]	IC50 (T47D [5]) [µM]	IC50 (T47D [6]) [µM]	RBA [7] [%]	Selectivity ratio (Homo sapiens)	IC50 (T47D [8]) [µM]	IC50 [2] [µM]	IC50 at 72 h [4] [µM]	selectivity ratio [9]
N#C[Se]CCCCCC(=O)Nc1ccc(C2=C(c3ccc(O)cc3)C3CC(S(=O)(=O)N(CC(F)(F)F)c4cccc(Cl)c4)C2O3)cc1 (configuration not stated)	Active	0.06	1.09	4.26	3.42	4.4	73.3	3.76	3.96	49.1	45
N#C[Se]CCCCCC(=O)Nc1ccc(C2=C(c3ccc(O)cc3)C3CC(S(=O)(=O)N(CC(F)(F)F)c4ccc(F)cc4)C2O3)cc1 (configuration not stated)	Active	0.38	0.17	5.82	2.71	7.18	18.9	2.7	4.48	12.2	71.9
CCN(c1ccc(F)cc1)S(=O)(=O)C1CC2OC1C(c1ccc(NC(=O)CCCCC[Se]C#N)cc1)=C2c1ccc(O)cc1 (configuration not stated)	Active	0.07	0.25	3.84	2.43	11.2	159	2.74	2.64	18.1	72.2
CCN(c1ccc(OC)cc1)S(=O)(=O)C1CC2OC1C(c1ccc(NC(=O)CCCCC[Se]C#N)cc1)=C2c1ccc(O)cc1 (configuration not stated)	Active	0.01	0.33	6.66	4.76	7.3	730	4.92	5.8	37.9	115
COc1ccc(N(CC(F)(F)F)S(=O)(=O)C2CC3OC2C(c2ccc(NC(=O)CCCCC[Se]C#N)cc2)=C3c2ccc(O)cc2)cc1 (configuration not stated)	Active	0.05	0.25	5.3	3.96	2.31	46.2	3.06	3.73	36.7	147
N#C[Se]CCCCCC(=O)Nc1ccc(C2=C(c3ccc(O)cc3)C3CC(S(=O)(=O)N(CC(F)(F)F)c4cccc(F)c4)C2O3)cc1 (configuration not stated)	Active	0.1	0.31	2.87	2.86	4.64	46.4	3.38	1.97	4.74	15.3
N#C[Se]CCCCCCOc1ccc(OS(=O)(=O)C2CC3OC2C(c2ccc(O)cc2)=C3c2ccc(O)cc2)cc1 (configuration not stated)		1.73	5.14	7.47		9.98	5.77			10.8	2.1
N#C[Se]CCCCCC(=O)Nc1ccc(C2=C(c3ccc(O)cc3)C3CC(S(=O)(=O)Oc4ccccc4Br)C2O3)cc1 (configuration not stated)		0.18	0.86	1.71		2.21	12.3			7.55	8.78
N#C[Se]CCCCCC(=O)Nc1ccc(C2=C(c3ccc(O)cc3)C3CC(S(=O)(=O)Oc4ccc(Br)cc4)C2O3)cc1 (configuration not stated)		3.48	1.85	120		0.31	0.09			18.6	10.1
